From patent US20240246944A1, “AMINO HETEROARYL COMPOUNDS AND COMPOSITIONS” (Anrui Biomedical Technology (Guangzhou) Co., Ltd., priority 2021, published 2024) come the findings set out here.

Series [1] relates to IL-23 reporter (JAK2/Tyk2). Nature of the series: IL-23 induced STAT3 QUANTI-Blue reporter assay in HEK-Blue IL-23 cells. It is filed as cell-based. The procedure: Biological Example 2. IL-23 Induced STAT3 QUANTI-Blue in HEK-Blue™ IL-23 Cells
HEK-Blue™ IL-23 cells were prepared at 2×10^5 cells/ml for adding 5000 cell/well and incubate plates containing compounds+cells for 1 hour at 37° C. Prepare IL-23 (treatment at final conc. 0.1 ng/mL) during incubation and add 2 ul per well of prepared cytokine in media to appropriate wells. The plate was incubated for overnight at 37° C. The next day, QUANTI-Blue solution was prepared. 18 ul of QUANTI-Blue solution per well was added into a new 384-well clear flat bottom plate, followed by addition of 2 ul of induced and treated HEK-Blue cell supernatant from overnight plate. The plate was incubated at 37° C. for 2 hours and SEAP levels determined.

The target in another series is Jak1 JH2 (Homo sapiens (Human), UniProt P23458). Kind of series: Jak1 JH2 HTRF binding. As to conditions: biochemical assay.
Chain of Jak1 JH2 (P23458 583-855): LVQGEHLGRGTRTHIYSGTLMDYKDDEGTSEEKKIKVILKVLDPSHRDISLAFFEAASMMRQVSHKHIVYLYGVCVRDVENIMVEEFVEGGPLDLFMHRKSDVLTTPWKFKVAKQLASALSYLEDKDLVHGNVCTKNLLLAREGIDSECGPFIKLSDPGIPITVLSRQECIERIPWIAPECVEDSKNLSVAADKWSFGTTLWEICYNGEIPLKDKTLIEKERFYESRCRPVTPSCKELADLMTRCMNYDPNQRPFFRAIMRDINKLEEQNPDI
For series [2], the system named is IFNα/β reporter (JAK1/Tyk2). Kind of series: IFN-alpha/beta reporter assay in HEK-Blue IFN-a/b cells. Type of series: cell-based. As to conditions: cellular assay. Here is the method:
IFN-alpha/beta reporter assay. Seed HEK-Blue™ IFN-a/b cells (1-3×10^4 cells/well/[…]) to 96 cell plate with DMEM (10% HFBS+1% PS) and incubate overnight at 5% CO2&37° C. Diluent compounds in DMSO. Three times dilution and 10 doses. Add compounds to cell plate and incubate 1 h at 5% CO2&37° C. Add IFN-alpha/beta (5 U/ml) to cell plate and incubate overnight at 5% CO2&37° C. Prepare QUANTI-Blue Solution: add 100 μl of QB reagent and 100 μl of QB buffer to 9800 μl sterile water. Use cell supernatant and QUANTI-Blue solution in proportion of 1 to 10, incubate 2 h at 37° C. Read OD630.

A further series deals with IL-2 reporter (JAK1/3). Kind of series: IL-2 reporter assay in HEK-Blue IL-2 cells. It is filed as cell-based. The following applies: HEK-Blue. The procedure: IL-2 reporter assay. Seed HEK-Blue™ IL-2 Cells (1-3×10^4 cells/well/[…]) to 96 cell plate with DMEM (10% HFBS+1% PS) and incubate overnight at 5% CO2&37° C. Diluent compounds in DMSO. Three times dilution and 10 doses. Add compounds to cell plate and incubate 1 h at 5% CO2&37° C. Add IL-2 (1 ng/mL) to cell plate and incubate overnight at 5% CO2&37° C. Prepare QUANTI-Blue Solution: add 100 μl of QB reagent and 100 μl of QB buffer to 9800 μl sterile water. Use cell supernatant and QUANTI-Blue solution in proportion of 1 to 10, incubate 2 h at 37° C. Read OD630.

The subject of the next series is IFNγ reporter (JAK1/2). Nature of the series: IFN-γ reporter assay in HEK-Dual IFN-γ cells. It is filed as cell-based. The following applies: cellular assay; read-out: IFNγ reporter assay (JAK1/2) IC50. Here is the method:
IFN-γ reporter assay. Seed HEK-Dual™ IFN-γ Cells (1-3×10^4 cells/well/[…]) to 96 cell plate with DMEM (10% HFBS+1% PS) and incubate overnight at 5% CO2&37° C. Diluent compounds in DMSO. Three times dilution and 10 doses. Add compounds to cell plate and incubate 1 h at 5% CO2&37° C. Add IFN-γ (0.1 ng/mL) to cell plate and incubate overnight at 5% CO2&37° C. Prepare QUANTI-Blue Solution: add 100 μl of QB reagent and 100 μl of QB buffer to 9800 μl sterile water. Use cell supernatant and QUANTI-Blue solution in proportion of 1 to 10, incubate 2 h at 37° C. Read OD630.

For series [3], the system named is IL-12/IL-18 induced IFN-gamma production. Nature of the series: In vivo inhibition of IL-12/IL-18 induced IFN-gamma. As to conditions: mice, oral. The procedure: Biological Example 5. In Vivo Inhibition of IL-12/IL-18 Induced IFN-Gamma
Selected exemplified compounds of the present disclosure (compound Examples 4 and 5) and BMS986165 were dosed orally to female C57BL/6J mice (Charles River). One hour later, 0.05 μg of recombinant rat IL-12 was administered IV. Another hour later following IL-12 administration, 1 μg of recombinant rat IL-18 was administered IV. Three hours later, blood was collected and serum were obtained by centrifugation for analysis of IFNγ by ELISA.

The subject of a further series is IL-23-induced psoriasis. Kind of series: In vivo mouse psoriasis model induced by human IL-23. As to conditions: mice, 7.5, 15 and 30 mg/kg BID oral gavage. Here is the method:
Biological Example 6. In Vivo Mouse Psoriasis Model Selected exemplified compounds of the present disclosure were also tested in a mouse psoriasis model induced by human IL-23. Psoriasis was induced in 6-8-week-old C57BL/6J female mice (Charles River) by intradermal injection of recombinant human IL-23 into the left ear. IL-23 injections were administered every other day from day 1 through day 9 of the study. Selected compounds at 7.5, 15, and 30 mg/kg, with 15 mg/kg BMS986165 as positive control were dosed BID by oral gavage, with the first dose given the evening before first IL-23 injection. Ear thickness was measured every other day, prior to the ear injection.

The nature of another series: Dog PK. It is filed as in vivo, Beagle dogs. The procedure:
Biological Example 7. Dog PK
Selected exemplified compounds of the present disclosure were also tested in dog for pharmacokinetic studies. The Beagle dogs were fasted overnight with free access to drinking water prior to treatment. All the dosing solutions were freshly prepared prior to dose administration. In intravenous administration animal group were given a single dose of compound at 1 mg·kg-1. Blood for plasma samples were collected at pre-dose, 5, 15, 30 min, 1, 2, 4, 8, 12 and 24 h through vein into tubes anticoagulated with EDTA-K2. In intragastric administration animal group were given a single dose of compound at 5 mg·kg-1. Blood for plasma samples (˜0.5 mL) were collected at pre-dose, 15, 30 min, 1, 2, 4, 8, 12 and 24 h post-dose through vein into tubes anticoagulated with EDTA-K2. Blood samples were inverted several times and were held on wet ice pending centrifugation. The samples were centrifuged (within 20 minutes of collection) in a centrifuge set at 4° C. for 10 minutes at 1500-1600 g to obtain plasma. Plasma samples were transferred and frozen immediately after separation and stored in a freezer set at below −70° C. prior to analysis.

A further series can be described thus: Mouse PK. Type of series: in vivo.

The structures appear in SMILES notation. Like-named read-outs stand apart in the source and are kept apart here.

Consider `[2H]C([2H])([2H])NC(=O)c1nnc(NC(=O)C2CC2)cc1Nc1cccc(-n2cnc(C)n2)c1OC` [Example 5, 6-(cyclopropanecarboxamido)-4-((2-methoxy-3-(3-methyl-1H-1,2,4-triazol-1-yl)phenyl)amino)-N-(methyl-d3)pyridazine-3-carboxamide], for which the IC50 in series [1] (HEK-Blue IL-23, HEK-Blue IL-23 cells, Table 2, read-out: IL23 reporter assay_IC50) was 6 nM; in series [1] (HEK-Blue IL-23, cellular assay, Table 3 and text, read-out: IL-23 reporter assay (JAK2/Tyk2) IC50), ~6 nM; in series [1] (cellular assay, Table 3 and text, read-out: IL-23 reporter assay (JAK2/Tyk2) IC50), 6.1 nM; on Jak1 JH2, 13.2 nM; in [2] (HEK-Blue), ~5 nM; in [2], 4.6 nM. Also, the IC50 in the series with IL-2 reporter (JAK1/3) (cellular assay, read-out: IL-2 reporter assay (JAK1/3) IC50) is > 10000 nM; with IL-2 reporter (JAK1/3) (read-out: IC50 in IL-2 reporter assay (JAK1/3)), > 10000 nM; with IFNγ reporter (JAK1/2), > 10000 nM. Also, the “inhibition of IFNγ production (reduction compared to vehicle treated group)” value in series [3] (10 mpk) is given as “greater than 93%”. Further, the “inhibition of IL-12/IL-18 induced IFNγ production, result in words” value in [3] (positive control BMS986165) is reported as “efficacy similar to the positive control tested”. In the series with IL-23-induced psoriasis, the “protection from IL-23-induced psoriasis (ear thickness), result in words” value was “dose-dependently protect mice from IL-23-induced psoriasis”. Further, in “Dog PK”, the “pharmacokinetic profile in dog compared to BMS986165, in words” value is recorded as “superior pharmacokinetic profile in dog compared to BMS986165”. In addition, the AUC(0-t) in “Dog PK” (beagle, plasma, intravenous, 1 mg/kg single dose, read-out: AUC0-t (IV)) came to 6.4 µM·h; in the series “Dog PK” (beagle, plasma, po, intragastric, 5 mg/kg single dose, read-out: AUC0-t (PO)) it was 47.5 µM·h. Further, the concentration in the series “Dog PK” (beagle, plasma, po, intragastric, 5 mg/kg single dose) peaked (Cmax) at 7.87 µM. The “mouse PK profile compared to BMS986165, in words” value in the series “Mouse PK” is “about the same with BMS986165”.
